From BindingDB's records for doi:10.1021/jm00046a002 (Upjohn, 1994)

Key:
[1] = target: T1, Dimer of Gag-Pol polyprotein [489-587] (Human immunodeficiency virus 1, UniProt P12497); experiment: Protease Inhibition Assay
T1 construct: 489-587
Excerpt: (§1) HIV-1 protease was purified and refolded from E. coli inclusion bodies. The substrate used spans the p17-p24 processing site (R-V-S-Q-N-Y-P-I-V-Q-N-K) and was derivatized with biotin and fluorescein isothiocyanate (FITC) at the amino and carboxy termini. In the presence of HIV-l protease, the substrate is rapidly cleaved into two parts. The biotinylated amino terminal fragment binds to the avidin beads while the FITC-containing carboxy1 terminal fragment is removed through the membrane. […] The bound fluorescence is obtained by processing on an IDEXX Screen Machine. Determination of Ki values with this assay requires analysis under conditions in which substrate concentration resides substantially below Km and the inhibitor concentrations greatly exceeds the Ki value and the enzyme concentration.

[2] = target: T2, Dimer of Gag-Pol polyprotein [514-612] (Human immunodeficiency virus 2, UniProt P04584); experiment: Protease Inhibition Assay
T2 construct: 514-612
T2 sequence (P04584 whole entry): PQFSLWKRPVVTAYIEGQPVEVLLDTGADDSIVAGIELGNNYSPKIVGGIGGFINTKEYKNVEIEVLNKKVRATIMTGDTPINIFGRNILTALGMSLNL
Excerpt: as §1

| Structure (SMILES) | Ki [1] [nM] | Ki [2] [nM] |
| --- | --- | --- |
| O=c1oc2c(c(O)c1C(c1ccccc1)C1CC1)CCCCCC2 (configuration not stated) | 15 | – |
| CCC(Cc1ccccc1)c1cc(O)c(C(CC)c2ccccc2)c(=O)o1 (configuration not stated) [4-hydroxy-6-(1-phenylbutan-2-yl)-3-(1-phenylpropyl)-2H-pyran-2-one] | – | 32 |
